Source: patent publication US8110570B2, “Modulators of acetyl-coenzyme A carboxylase and methods of use thereof” (Cropsolution, Inc., priority 2008, dated 2012)
pIC50: −log10 of the molar value. Each block holds one compound with its values, some of them ahead of it.

How the values were obtained:
hACC2 = molecular target: T1, hACC2 (Homo sapiens, UniProt O00763); assay: [14C]bicarbonate incorporation assay, overall ACC activity; type: biochemical; settings: recombinant hACC2, overall ACC activity
T1 construct: delete amino acids 1-148 and add Met-Gly in front of Lys149 in the final product; His tag (C); made in house; host or cells: baculovirus, Sf9 insect cells
T1 sequence (O00763 149-2458 limits assumed): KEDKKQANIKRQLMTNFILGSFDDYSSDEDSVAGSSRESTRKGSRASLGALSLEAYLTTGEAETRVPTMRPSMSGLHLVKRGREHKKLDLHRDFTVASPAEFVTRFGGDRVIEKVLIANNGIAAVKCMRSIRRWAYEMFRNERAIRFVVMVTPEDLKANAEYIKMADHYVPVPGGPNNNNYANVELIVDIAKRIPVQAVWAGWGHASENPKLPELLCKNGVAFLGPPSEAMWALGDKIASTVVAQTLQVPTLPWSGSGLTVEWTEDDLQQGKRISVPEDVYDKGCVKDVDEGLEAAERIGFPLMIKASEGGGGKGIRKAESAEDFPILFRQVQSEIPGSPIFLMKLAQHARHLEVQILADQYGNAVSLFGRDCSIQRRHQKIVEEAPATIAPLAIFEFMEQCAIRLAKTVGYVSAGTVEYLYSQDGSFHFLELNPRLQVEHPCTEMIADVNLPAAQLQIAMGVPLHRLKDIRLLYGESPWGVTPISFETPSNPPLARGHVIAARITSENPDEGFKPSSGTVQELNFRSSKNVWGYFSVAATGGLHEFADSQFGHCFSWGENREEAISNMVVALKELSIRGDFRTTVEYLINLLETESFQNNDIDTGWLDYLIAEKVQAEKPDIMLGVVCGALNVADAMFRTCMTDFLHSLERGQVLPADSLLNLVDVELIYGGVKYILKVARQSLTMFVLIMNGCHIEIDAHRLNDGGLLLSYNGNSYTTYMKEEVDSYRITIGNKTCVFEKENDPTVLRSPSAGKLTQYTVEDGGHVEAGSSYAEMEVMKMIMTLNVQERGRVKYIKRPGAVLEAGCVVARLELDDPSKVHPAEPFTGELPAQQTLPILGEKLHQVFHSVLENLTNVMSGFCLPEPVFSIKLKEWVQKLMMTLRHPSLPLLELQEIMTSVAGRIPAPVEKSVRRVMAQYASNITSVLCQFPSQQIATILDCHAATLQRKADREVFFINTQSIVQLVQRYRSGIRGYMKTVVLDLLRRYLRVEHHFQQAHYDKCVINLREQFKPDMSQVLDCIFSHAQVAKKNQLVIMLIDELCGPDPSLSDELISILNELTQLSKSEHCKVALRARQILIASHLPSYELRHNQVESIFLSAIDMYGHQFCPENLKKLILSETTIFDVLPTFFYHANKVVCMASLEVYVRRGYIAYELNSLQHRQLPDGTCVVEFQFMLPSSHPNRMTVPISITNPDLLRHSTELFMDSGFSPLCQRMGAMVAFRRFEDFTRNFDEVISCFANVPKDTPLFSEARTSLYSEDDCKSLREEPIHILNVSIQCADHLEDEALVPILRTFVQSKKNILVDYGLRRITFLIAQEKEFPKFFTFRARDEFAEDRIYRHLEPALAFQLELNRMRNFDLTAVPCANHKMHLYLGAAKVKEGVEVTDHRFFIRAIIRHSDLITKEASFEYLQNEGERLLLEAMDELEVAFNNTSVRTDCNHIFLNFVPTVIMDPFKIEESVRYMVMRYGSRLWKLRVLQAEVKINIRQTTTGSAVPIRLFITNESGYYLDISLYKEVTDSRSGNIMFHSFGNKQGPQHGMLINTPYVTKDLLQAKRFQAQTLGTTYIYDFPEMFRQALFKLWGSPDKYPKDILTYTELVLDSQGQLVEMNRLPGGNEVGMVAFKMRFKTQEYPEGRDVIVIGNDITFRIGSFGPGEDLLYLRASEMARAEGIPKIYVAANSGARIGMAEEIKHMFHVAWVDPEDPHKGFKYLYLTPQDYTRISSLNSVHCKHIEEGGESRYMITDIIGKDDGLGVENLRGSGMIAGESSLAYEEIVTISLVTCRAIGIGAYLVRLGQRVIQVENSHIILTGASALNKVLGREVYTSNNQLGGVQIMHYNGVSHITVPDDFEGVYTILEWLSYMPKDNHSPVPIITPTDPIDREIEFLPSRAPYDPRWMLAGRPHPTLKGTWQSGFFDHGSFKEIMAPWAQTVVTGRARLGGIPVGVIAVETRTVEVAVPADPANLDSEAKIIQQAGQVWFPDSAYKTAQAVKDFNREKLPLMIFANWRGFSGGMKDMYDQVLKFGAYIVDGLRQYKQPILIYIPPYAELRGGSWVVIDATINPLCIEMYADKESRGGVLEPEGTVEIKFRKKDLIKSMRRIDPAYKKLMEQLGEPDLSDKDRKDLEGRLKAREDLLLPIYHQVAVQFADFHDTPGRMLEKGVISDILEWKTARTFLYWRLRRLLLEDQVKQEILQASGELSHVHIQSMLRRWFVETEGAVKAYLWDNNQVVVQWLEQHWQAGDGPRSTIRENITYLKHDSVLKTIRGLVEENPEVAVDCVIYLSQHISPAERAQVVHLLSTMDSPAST
Description: (§1) In vitro IC50 values of human ACC were determined using recombinant enzyme produced by standard procedures. For example, full-length cDNAs for both the human isoforms (hACC1 and hACC2) were each cloned and expressed as a recombinant protein using a baculovirus system. Double stranded cDNA from human fetal liver (Quick-Clone cDNA, cat. #7171-1) was purchased from BD/Clontech (Mt. View, Calif.). PCR primers were designed for full-length hACC1 and hACC2 using GenBank submissions AY237919 and AJ575592, respectively. The Advantage GC 2 PCR kit (BD/Clontech) was used for amplification. The PCR products (about 7 Kb) were TOPO-cloned into the pCR4Blunt vector (Invitrogen, Carlsbad, Calif.), and 6 clones of each gene were isolated. […] Full length versions of the two cDNAs corresponding to their respective Genbank sequences were assembled in pBluescript SK+ (Stratagene, La Jolla, Calif.) by combining error-free fragments from the PCR clones. The resulting hACC1 clone, designated pCS35, has six silent nucleotide differences compared to Genbank accession AY237919. The final hACC2 clone, designated pCS36, has ten silent nucleotide differences compared to Genbank accession AJ575592. Primers were designed to PCR amplify the cDNAs along with the in-frame 3′-his tag sequences from the pET vector and TOPO-cloned the resulting products into the Gateway® entry vector pENTR/D-TOPO. The ACC2 primers were designed to delete amino acids 1-148 and add Met-Gly in front of Lys149 in the final product. The resulting entry clones were transferred to BaculoDirect™ linear DNA (Invitrogen corp.) using the Gateway® LR recombination reaction. The recombinant baculovirus DNA was transfected into insect cells and viral amplification was performed according to the manufacturer's protocols. For protein expression sf9 cells were infected with a P3 viral stock in the presence of 50 uM biotin. The cells were harvested after 48-72 hr, lysed by sonication, and the resulting extract was clarified by centrifugation. ACC in the crude extract was concentrated by ammonium sulfate precipitation (40% w/v) and purified by Ni^2+-NTA chromatography (Novagen) followed by anion exchange chromatography on a UNO-Q column (BioRad).
(§2) Overall ACC activity in the hACC preparations is measured by following incorporation of [^14C]bicarbonate into […] essentially as described (Thumpy and Wakil, J Biol Chem 260, 6318-6323 (1985). Briefly, the reaction mixture (50 μL) contains: 50 mM Hepes (pH7.4), 20 mM K-Citrate, 20 mM Mg-Acetate 1.5 mM MgSO4, 2 mM DTT, 2 mM acetyl-CoA, 12 mM NaHCO3, 0.2 mM NaH^14CO3 (˜50 mCi/mmol), 0.01% (v/v) Triton X-100, 0.75 mg/mL BSA, 1% (v/v) DMSO (with or without inhibitor), and 0.3 μg (hACC1) or 0.15 μg (hACC2) enzyme. Reactions are initiated by the addition of ATP to a final concentration 2 mM. After 10 minutes at 37° C., the reaction is stopped by the addition of 2N HCl (50 μL). The samples are evaporated in a hood overnight, resuspended in H2O (200 μL), and incorporated label is quantified by scintillation counting in scintillation cocktail (3 mL). Inhibition data are fit to dose-response curves and IC50 values are reported (i.e. the concentration of inhibitor that gives 50% inhibition).

hACC1 = molecular target: T2, hACC1 (Homo sapiens, UniProt Q13085); assay: as above; type: biochemical; settings: recombinant hACC1, overall ACC activity
T2 construct: PCR primers were designed for full-length hACC1 and hACC2 using GenBank submissions AY237919 and AJ575592, respectively; His tag (C); made in house; host or cells: baculovirus, Sf9 insect cells
Description: as §1, §2

[1] = molecular target: uACC (Ustilago maydis ACC) (Ustilago maydis, UniProt A0A0D1DYD5); assay: as above; type: biochemical
uACC (Ustilago maydis ACC), sequence (A0A0D1DYD5 entry or part of it): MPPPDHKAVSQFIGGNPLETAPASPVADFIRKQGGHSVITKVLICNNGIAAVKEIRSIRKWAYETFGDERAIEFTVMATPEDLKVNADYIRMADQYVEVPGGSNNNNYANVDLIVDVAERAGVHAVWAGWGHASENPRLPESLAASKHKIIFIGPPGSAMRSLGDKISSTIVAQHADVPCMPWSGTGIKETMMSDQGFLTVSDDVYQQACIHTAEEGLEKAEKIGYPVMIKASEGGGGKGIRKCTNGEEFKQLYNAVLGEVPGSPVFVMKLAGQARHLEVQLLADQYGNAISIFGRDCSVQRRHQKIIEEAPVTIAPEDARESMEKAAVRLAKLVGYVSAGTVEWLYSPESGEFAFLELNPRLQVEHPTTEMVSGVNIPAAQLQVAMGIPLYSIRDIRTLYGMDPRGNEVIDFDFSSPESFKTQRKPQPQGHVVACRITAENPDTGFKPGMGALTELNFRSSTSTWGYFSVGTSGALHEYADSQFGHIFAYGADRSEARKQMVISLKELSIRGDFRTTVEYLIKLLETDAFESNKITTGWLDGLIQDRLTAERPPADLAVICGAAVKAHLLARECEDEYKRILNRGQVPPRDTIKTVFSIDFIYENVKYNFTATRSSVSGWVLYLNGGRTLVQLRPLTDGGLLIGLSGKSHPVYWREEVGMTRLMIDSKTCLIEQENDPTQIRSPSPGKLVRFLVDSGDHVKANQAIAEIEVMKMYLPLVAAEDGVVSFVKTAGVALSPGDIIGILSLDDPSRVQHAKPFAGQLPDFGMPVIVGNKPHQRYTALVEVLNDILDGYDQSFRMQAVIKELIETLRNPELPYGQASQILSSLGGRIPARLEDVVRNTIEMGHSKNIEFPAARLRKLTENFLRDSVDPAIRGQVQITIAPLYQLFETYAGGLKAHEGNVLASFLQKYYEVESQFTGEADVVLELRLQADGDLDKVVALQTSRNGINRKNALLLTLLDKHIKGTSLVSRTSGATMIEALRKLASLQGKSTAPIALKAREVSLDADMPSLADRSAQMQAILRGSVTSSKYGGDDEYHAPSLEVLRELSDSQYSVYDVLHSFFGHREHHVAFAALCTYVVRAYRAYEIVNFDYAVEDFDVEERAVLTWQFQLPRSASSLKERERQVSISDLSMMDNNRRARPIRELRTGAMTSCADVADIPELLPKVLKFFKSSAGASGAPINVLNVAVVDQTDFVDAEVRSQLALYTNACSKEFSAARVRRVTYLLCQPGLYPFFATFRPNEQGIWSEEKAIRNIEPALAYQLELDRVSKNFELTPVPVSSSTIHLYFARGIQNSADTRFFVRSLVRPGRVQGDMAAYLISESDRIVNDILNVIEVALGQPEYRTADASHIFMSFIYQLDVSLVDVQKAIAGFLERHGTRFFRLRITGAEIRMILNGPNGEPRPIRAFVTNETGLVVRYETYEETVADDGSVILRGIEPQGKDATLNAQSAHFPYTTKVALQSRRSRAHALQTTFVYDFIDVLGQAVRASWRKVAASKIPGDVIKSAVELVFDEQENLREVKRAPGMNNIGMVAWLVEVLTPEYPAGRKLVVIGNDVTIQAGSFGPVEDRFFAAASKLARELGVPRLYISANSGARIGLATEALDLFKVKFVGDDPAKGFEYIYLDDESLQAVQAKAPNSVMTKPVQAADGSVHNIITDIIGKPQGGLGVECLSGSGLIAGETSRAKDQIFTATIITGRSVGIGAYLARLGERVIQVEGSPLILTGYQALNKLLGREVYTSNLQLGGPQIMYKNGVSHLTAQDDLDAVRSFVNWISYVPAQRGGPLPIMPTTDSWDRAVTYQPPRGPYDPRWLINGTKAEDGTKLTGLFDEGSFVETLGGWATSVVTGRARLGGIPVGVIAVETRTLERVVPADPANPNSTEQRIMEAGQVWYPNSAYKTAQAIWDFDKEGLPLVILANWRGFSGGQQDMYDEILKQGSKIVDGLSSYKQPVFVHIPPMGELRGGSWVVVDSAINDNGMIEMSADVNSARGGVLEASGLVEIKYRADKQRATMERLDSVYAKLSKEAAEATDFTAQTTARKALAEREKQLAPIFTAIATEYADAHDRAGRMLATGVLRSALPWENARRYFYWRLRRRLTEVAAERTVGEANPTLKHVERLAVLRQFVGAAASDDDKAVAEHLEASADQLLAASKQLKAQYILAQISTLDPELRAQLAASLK

[2] = system: PC-3 human prostate cancer cells; assay: MTT Cell Proliferation Assay; type: cell-based; settings: 72 hours, read-out: Percent of Control PC-3
Description: (§3) The anti-proliferative activity of test compounds against human tumor cell lines is evaluated in vitro using the ATCC's MTT Cell Proliferation Assay (Catalog No. 30-100K). Cell lines are grown using media, serum, and culture conditions recommended by the ATCC. Stock cultures are allowed to grow to 70-80% confluence. Cells are seeded into 96-well culture plates at a predetermined density on day 0 in complete medium (0.1 mL). Plates are placed in a humidified incubator at 37° C. with 5% CO2 and 95% HEPA filtered room air for 24 hours. At this point compound (0.1 mL of 2× stock (in media)) is added to the indicated wells and the plates are returned to the incubator for 72 hours. Cell proliferation is measured by addition of MTT reagent to each well and incubated for an additional 4 hours, followed by addition of cell lysis/MTT solublization reagent and incubating overnight. […] Results are expressed as percent of control cells versus compound concentration. Compounds of the present invention, and salts thereof, were evaluated for anti-proliferative activity as described above.

[3] = system: HCT-116 human colon cancer cells; assay: MTT Cell Proliferation Assay; type: cell-based; settings: 72 hours, read-out: Percent of Control HCT-116
Description: as §3

[4] = system: MDA-MB-231 human breast cancer cells; assay: MTT Cell Proliferation Assay; type: cell-based; settings: 72 hours, read-out: Percent of Control MDA-MB-231
Description: as §3

[5] = system: A2780 human ovary cancer cells; assay: MTT Cell Proliferation Assay; type: cell-based; settings: 72 hours, read-out: Percent of Control A2780
Description: as §3

SMILES: COc1cc(C(=O)N2CCC3(CC2)NC(=O)c2cc(Br)ccc2O3)cc2c(OC)cccc12 [Compound 30, 6-Bromo-1′-[(4,8-dimethoxynaphth-2-yl)carbonyl]spiro[2H-1,3-benzoxazin-2,4′-piperidin]-4-(3H)-one]
pIC50 (hACC2): 7.77 | pIC50 (hACC1): 7.80 | pIC50 [1]: 4.70

SMILES: O=C1NC2(CCN(C(=O)c3cc4c(Cl)cccc4s3)CC2)Oc2ccc(Br)cc21 [Compound 5, 6-Bromo-1′-[(4-chlorobenzthien-2-yl)carbonyl]spiro[2H-1,3-benzoxazin-2,4′-piperidin]-4-(3H)-one]
pIC50 (hACC2): 5.68 | pIC50 (hACC1): 5.35 | pIC50 [1]: < 3.87

SMILES: COc1cc(C(=O)N2CCC3(CC2)NC(=O)c2cc(NC(C)=O)ccc2O3)nc2c(C3CC3)cccc12 [Compound 33]
pIC50 (hACC2): 7.29 | pIC50 (hACC1): 7.14 | pIC50 [1]: 4.71

SMILES: CCOc1ccc2c(c1)C(=O)NC1(CCN(C(=O)c3cc(OC)c4cccc(OC)c4n3)CC1)O2 [Compound 139]
pIC50 (hACC2): 7.48 | pIC50 (hACC1): 7.30 | activity at 3.3 µM [2]: 57% | activity at 10 µM [2]: 54.7% | activity at 3.3 µM [3]: 68.4% | activity at 10 µM [3]: 49.9% | activity at 3.3 µM [4]: 70.3% | activity at 10 µM [4]: 46.4% | activity at 3.3 µM [5]: 85.9% | activity at 10 µM [5]: 60.1% | pIC50 [1]: 4.70

SMILES: O=C1NC2(CCN(C(=O)c3sc4ccccc4c3Cl)CC2)Oc2ccc(Br)cc21 [Compound 1, 6-Bromo-1′-[(3-chlorobenzothien-2-yl)carbonyl]spiro[2H-1,3-benzoxazine-2,4′-piperidine]-4(3H)-one]
pIC50 (hACC2): 5.27 | pIC50 (hACC1): 5.22 | pIC50 [1]: 3.80

SMILES: Cc1nn(C)c2sc(C(=O)N3CCC4(CC3)NC(=O)c3cc(Br)ccc3O4)cc12 [Compound 4, 6-Bromo-1′-{(1,3-dimethyl-1H-thieno[2,3-c]pyrazol-5-yl)carbonyl} spiro[2H-1,3-benzoxazin-2,4′-piperidin]-4-(3H)-one]
pIC50 (hACC2): 5.54 | pIC50 (hACC1): 5.55 | pIC50 [1]: 4.30

pIC50 (hACC2): 7.38 | pIC50 (hACC1): 7.44
SMILES: COc1cccc2c(C)c(C(=O)N3CCC4(CC3)NC(=O)c3cc(OC(C)C)ccc3O4)[nH]c12 [Compound 180]
activity at 3.3 µM [2]: 79.5% | activity at 10 µM [2]: 56.8% | activity at 3.3 µM [3]: 52.6% | activity at 10 µM [3]: 29.8% | activity at 3.3 µM [4]: 68.7% | activity at 10 µM [4]: 9.3% | activity at 3.3 µM [5]: 79.4% | activity at 10 µM [5]: 21.2%

pIC50 (hACC2): 8.40 | pIC50 (hACC1): 8.40
SMILES: COc1ccc2cc3c(cc2c1)C(=O)NC1(CCN(C(=O)c2cc(OC)c4cccc(OC)c4n2)CC1)O3 [Compound 164]
activity at 3.3 µM [2]: 68% | activity at 3.3 µM [3]: 54% | activity at 10 µM [3]: 43.5% | activity at 3.3 µM [4]: 47.6% | activity at 10 µM [4]: 13.9% | activity at 3.3 µM [5]: 73.1% | activity at 10 µM [5]: 46%

SMILES: COc1cc(C(=O)N2CCC3(CC2)NC(=O)c2cc(C)ccc2O3)cc2c(OC)cccc12 [Compound 145, 1′-[(4,8-Dimethoxynaphth-2-yl)carbonyl]-6-methylspiro[2H-1,3-benzoxazin-2,4′-piperidin]-4-(3H)-one]
pIC50 (hACC2): 8.15 | pIC50 (hACC1): 7.96 | pIC50 [1]: 5.28

pIC50 (hACC2): 6.40 | pIC50 (hACC1): 6.32
SMILES: COc1ccc(OC)c2[nH]c(C(=O)N3CCC4(CC3)NC(=O)c3cc(OC(C)C)ccc3O4)cc12 [Compound 184]
activity at 3.3 µM [2]: 81.3% | activity at 10 µM [2]: 64.6% | activity at 3.3 µM [3]: 65.5% | activity at 10 µM [3]: 40.4% | activity at 3.3 µM [4]: 75.8% | activity at 10 µM [4]: 46.1% | activity at 3.3 µM [5]: 90% | activity at 10 µM [5]: 44.7%

SMILES: COc1ccc(-c2cc(C(=O)N3CCC4(CC3)NC(=O)c3ccccc3O4)n[nH]2)cc1 [Compound 87, 1′-[5-(4-Methoxyphenyl)-1(H)-pyrazol-3-ylcarbonyl]spiro[2H-1,3-benzoxazin-2,4′-piperidin]-4-(3H)-one]
pIC50 (hACC2): 4.92 | pIC50 (hACC1): 5.01 | pIC50 [1]: 3.66

SMILES: COc1cc2c(OC)cccc2cc1C(=O)N1CCC2(CC1)NC(=O)c1cc(Br)ccc1O2 [Compound 3, 6-Bromo-1′-[(3,5-dimethoxynaphth-2-yl)carbonyl]spiro[2H-1,3-benzoxazine-2,4′-piperidine]-4(3H)-one]
pIC50 (hACC2): 6.54 | pIC50 (hACC1): 6.07 | pIC50 [1]: 4.05

SMILES: CCOc1ccc2c(c1)C(=O)NC1(CCN(C(=O)c3cc(OC)c4cccc(OC)c4c3)CC1)O2 [Compound 146, 1′-[(4,8-Dimethoxynaphth-2-yl)carbonyl]-6-ethoxyspiro[2H-1,3-benzoxazin-2,4′-piperidin]-4-(3H)-one]
pIC50 (hACC2): 8.40 | pIC50 (hACC1): 8.30 | pIC50 [1]: 5.52
